{"source": "patent US10928381B2", "about": "“In vitro methods of monitoring autophagy in a human cell using a photoconvertable fluorescent protein linked biomarker” (The Regents of the University of Michigan, priority 2018, dated 2021)", "tested_on": "ATG5-deficient Dendra2-LC3 HEK cells", "assay": "Autophagic flux in Dendra2-LC3 HEK cells with ATG5 siRNA knockdown", "type": "cell-based, human", "settings": "20 nM ATG5 siRNA two days prior to imaging, red and green channels", "description": "FIG. 6, panels a-c. Evaluation of autophagy-modifying compounds in ATG5-deficient cells. […] IB, immunoblot.\nFIGS. 8A-E. Time dependent decay of Dendra2-LC3 as an assay of autophagic flux. (FIG. 8A) Dendra2-LC3 reporter cells were imaged prior to photoconversion to measure background TRITC intensity. Immediately following photoconversion with a 5 second pulse of […] light, cells were treated with DMSO, 1 uM Torin1, or 10 nM Bafilomycin-A1 and then were subsequently imaged at the indicated time points. Images are psuedocolored to better highlight intensity differences. (FIGS. 8B-E) Time dependent changes in photoconverted Dendra2-LC3 fluorescence in the TRITC (FIGS. 8B, D) and GFP (FIGS. 8C, E) channels. Gray boxes represent the pre and post-photoconversion time points. […]\nThe possibility that cell death and toxicity mimics the reduction in GFP intensity that would otherwise denote autophagy induction was also addressed. To avoid confounding from toxicity, the area occupied by cells in each image is calculated using ImageJ software and used as a proxy for cell number; since all wells received the same number of cells, >25% reductions in the area occupied by cells at the end of the experiment indicates toxicity. The formation of Dendra2-LC3 puncta in each condition is scored simultaneously using the ‘analyze particles’ function in ImageJ. […]", "note": "Entries after “also recorded” stand apart in the source; their conditions may differ.", "data": [{"smiles": "CCC(=O)N1CCN(c2ccc(-n3c(=O)ccc4cnc5ccc(-c6cnc7ccccc7c6)cc5c43)cc2C(F)(F)F)CC1", "note": "[Torin1, torin1]", "values": [{"measurement": "Effect of ATG5 knockdown on drug-induced autophagic flux", "result": "attenuates the effects"}, {"measurement": "Effect of ATG5 knockdown on drug-induced autophagic flux", "setting": "listed as torin1", "result": "attenuates the ability of torin1 to induce autophagic flux; also recorded: mitigated the autophagy-inducing effects"}]}]}
